This passage reports pest or weed control results from patent US10172358B2, “Thiopicolinamide compounds with fungicidal activity” (Dow AgroSciences LLC, priority 2016, dated 2019).

The subject of one test is Puccinia triticina. In words: Fungicidal activity: wheat brown rust (PUCCRT), disease control on wheat seedlings. In kind it is in vivo, Puccinia triticina on wheat plants (variety Yuma). As to conditions: low volume application, 121.5 g/H. The procedure: Technical grades of materials were dissolved in acetone, which were then mixed with nine volumes of water (H2O) containing 110 ppm Triton X-100. The fungicide solutions were applied onto wheat seedlings using an automated booth sprayer to run-off. All sprayed plants were allowed to air dry prior to further handling. All fungicides were evaluated using the aforementioned method for their activity vs. all target diseases, unless stated otherwise. Wheat leaf blotch and brown rust activity were also evaluated using track spray applications, in which case the fungicides were formulated as EC formulations, containing 0.1% Trycol 5941 in the spray solutions. Evaluation of Fungicidal Activity: Wheat Brown Rust (Puccinia triticina; Synonym: Puccinia recondita f. Sp. Tritici; Bayer Code PUCCRT) Wheat plants (variety Yuma) were grown from seed in a greenhouse in 50% mineral soil/50% soil-less Metro mix until the first leaf was fully emerged, with 7-10 seedlings per pot. These plants were inoculated with an aqueous spore suspension of Puccinia triticina either prior to or after fungicide treatments. After inoculation the plants were kept in a dark dew room at 22° C. with 100% relative humidity overnight to permit spores to germinate and infect the leaf. The plants were then transferred to a greenhouse set at 24° C. for disease to develop. Fungicide formulation, application and disease assessment followed the procedures as described in the Example A. The results of the evalution are shown below in Table 4.

A further test deals with Phakopsora pachyrhizi. In words: Fungicidal activity: Asian soybean rust (PHAKPA), disease control on soybean seedlings. In kind it is in vivo. The procedure: Evaluation of Fungicidal Activity: Asian Soybean Rust (Phakopsora Pachyrhizi; Bayer Code PHAKPA)
Technical grades of materials were dissolved in acetone, which were then mixed with nine volumes of H2O containing 0.011% Tween 20. The fungicide solutions were applied onto soybean seedlings using an automated booth sprayer to run-off. All sprayed plants were allowed to air dry prior to further handling.
Soybean plants (variety Williams 82) were grown in soil-less Metro mix, with one plant per pot. Two weeks old seedlings were used for testing. Plants were inoculated either 3 days prior to or 1 day after fungicide treatments. Plants were incubated for 24 h in a dark dew room at 22° C. and 100% relative humidity then transferred to a growth room at 23° C. for disease to develop. Disease severity was assessed on the sprayed leaves.

In a further test the test system is Zymoseptoria tritici. In words: Fungicidal activity: leaf blotch of wheat (SEPTTR), disease control on wheat seedlings. In kind it is in vivo, Zymoseptoria tritici on wheat plants (variety Yuma). Conditions: low volume application, 121.5 g/H. The procedure: Evaluation of Fungicidal Activity: Leaf Blotch of Wheat (Zymoseptoria Tritici; Bayer Code […]) Technical grades of materials were dissolved in acetone, which were then mixed with nine volumes of water (H2O) containing 110 ppm Triton X-100. The fungicide solutions were applied onto wheat seedlings using an automated booth sprayer to run-off. All sprayed plants were allowed to air dry prior to further handling. All fungicides were evaluated using the aforementioned method for their activity vs. all target diseases, unless stated otherwise. Wheat leaf blotch and brown rust activity were also evaluated using track spray applications, in which case the fungicides were formulated as EC formulations, containing 0.1% Trycol 5941 in the spray solutions. Wheat plants (variety Yuma) were grown from seed in a greenhouse in 50% mineral soil/50% soil-less Metro mix until the first leaf was fully emerged, with 7-10 seedlings per pot. These plants were inoculated with an aqueous spore suspension of Zymoseptoria tritici either prior to or after fungicide treatments. After inoculation the plants were kept in 100% relative humidity (one day in a dark dew chamber followed by two to three days in a lighted dew chamber at 20° C.) to permit spores to germinate and infect the leaf. The plants were then transferred to a greenhouse set at 20° C. for disease to develop. When disease symptoms were fully expressed on the 1st leaves of untreated plants, infection levels were assessed on a scale of 0 to 100 percent disease severity. Percent disease control was calculated using the ratio of disease severity on treated plants relative to untreated plants.

The mark [1] stands for this setting: 72 h, 3 day curative, read-out: PUCCRT 3DC disease control, LV activity at 121.5 g/H.
Where [2] appears, read: 24 h, 1 day protectant, read-out: PHAKPA 1DP disease control at 25 ppm.
Setting [3] is: 24 h, 1 day protectant, read-out: SEPTTR 1DP disease control, LV activity at 121.5 g/H.
Setting [4] is: 72 h, 3 day curative, read-out: SEPTTR 3DC disease control, LV activity at 121.5 g/H.
[5] abbreviates: 24 h, 1 day protectant, read-out: PUCCRT 1DP disease control, LV activity at 121.5 g/H.
Setting [6] is: 72 h, 3 day curative, read-out: PHAKPA 3DC disease control at 25 ppm.

Like-named read-outs stand apart in the source and are kept apart here.

For the compound `COc1ccnc(C(=S)N[C@@H](C)C(=O)O[C@H](CC(C)C)[C@H](C)Oc2ccccc2)c1OC(C)=O` [Compound 40], the pest or weed control at 121.5 g/ha with Puccinia triticina (setting [1]) is no more than 80%. Moreover, in the test on Phakopsora pachyrhizi (setting [2]), the pest or weed control at 25 ppm was no more than 80%.

On to `COc1ccnc(C(=S)N[C@@H](C)C(=O)O[C@@H](C)[C@H](Oc2ccc(Cl)cc2)C(C)C)c1OC(C)=O` [Compound 43], for which the pest or weed control at 121.5 g/ha with Zymoseptoria tritici (setting [3]) is greater than 80%; in the test with Zymoseptoria tritici (setting [4]), no more than 80%; with Puccinia triticina (setting [5]) it was greater than 80%; in the test with Puccinia triticina (setting [1]) it was greater than 80%.

`COc1cc(F)ccc1[C@H](c1ccccc1)[C@H](C)OC(=O)[C@H](C)NC(=S)c1nccc(OC)c1OC(C)=O` [Compound 44]: the pest or weed control at 121.5 g/ha is greater than 80% in the test on Zymoseptoria tritici (setting [3]), greater than 80% with Zymoseptoria tritici (setting [4]), greater than 80% in the test with Puccinia triticina (setting [5]) and no more than 80% in the test on Puccinia triticina (setting [1]).

`COc1cc(F)ccc1[C@H](c1ccc(C)cc1)[C@H](C)OC(=O)[C@H](C)NC(=S)c1nccc(OC)c1OC(C)=O` [Compound 45]: the pest or weed control at 121.5 g/ha with Zymoseptoria tritici (setting [3]), in the test on Zymoseptoria tritici (setting [4]), with Puccinia triticina (setting [5]) and in the test with Puccinia triticina (setting [1]) was greater than 80% throughout.

In the case of `COc1ccnc(C(=S)N[C@@H](C)C(=O)O[C@@H](C)[C@@H](c2ccc(C)cc2)c2ccc(F)cc2C)c1OC(C)=O` [Compound 46], the pest or weed control at 121.5 g/ha in the test with Zymoseptoria tritici (setting [3]), in the test on Zymoseptoria tritici (setting [4]), in the test with Puccinia triticina (setting [5]) and in the test on Puccinia triticina (setting [1]) was greater than 80% throughout.

For the compound `COc1ccnc(C(=S)N[C@@H](C)C(=O)O[C@@H](C)C(c2ccc(Cl)cc2)c2ccc(Cl)cc2)c1OC(C)=O` [Compound 47], the pest or weed control at 121.5 g/ha in the test on Zymoseptoria tritici (setting [3]) is greater than 80%; in the test on Zymoseptoria tritici (setting [4]) it was greater than 80%; in the test on Puccinia triticina (setting [5]), greater than 80%; in the test with Puccinia triticina (setting [1]), no more than 80%.

For `COc1ccnc(C(=S)N[C@@H](C)C(=O)O[C@@H](C)C(c2ccc(C)cc2C)c2ccc(C)cc2C)c1OC(C)=O` [Compound 48], the pest or weed control at 121.5 g/ha with Zymoseptoria tritici (setting [3]), with Zymoseptoria tritici (setting [4]) and in the test on Puccinia triticina (setting [5]) was greater than 80% throughout.

On to `COc1ccnc(C(=S)N[C@@H](C)C(=O)O[C@@H](C)[C@H](Oc2ccc(Cl)cc2Cl)c2ccccc2)c1OC(C)=O` [Compound 49], for which the pest or weed control at 121.5 g/ha in the test with Zymoseptoria tritici (setting [3]) and with Puccinia triticina (setting [5]) was no more than 80% throughout.

As to `COc1ccnc(C(=S)N[C@@H](C)C(=O)O[C@@H](C)C(c2ccc(C)cc2)c2ccc(C)cc2)c1OC(C)=O` [Compound 50], the pest or weed control at 121.5 g/ha in the test on Zymoseptoria tritici (setting [3]), in the test with Zymoseptoria tritici (setting [4]), with Puccinia triticina (setting [5]) and with Puccinia triticina (setting [1]) was greater than 80% throughout.

Turning to `COc1ccnc(C(=S)N[C@@H](C)C(=O)O[C@@H](C)[C@@H](c2ccccc2)c2ccc(F)cc2)c1OC(C)=O` [Compound 51], the pest or weed control at 121.5 g/ha in the test with Zymoseptoria tritici (setting [3]) is greater than 80%; with Zymoseptoria tritici (setting [4]), greater than 80%; in the test with Puccinia triticina (setting [5]), greater than 80%; in the test on Puccinia triticina (setting [1]) it was no more than 80%.

On to `COc1cc(Cl)ccc1C(c1ccc(Cl)cc1OC)[C@H](C)OC(=O)[C@H](C)NC(=S)c1nccc(OC)c1OC(C)=O` [Compound 52], for which the pest or weed control at 121.5 g/ha was greater than 80% with Zymoseptoria tritici (setting [3]), greater than 80% with Zymoseptoria tritici (setting [4]), greater than 80% in the test with Puccinia triticina (setting [5]) and no more than 80% in the test on Puccinia triticina (setting [1]).

Consider `COc1ccc(C(c2ccc(OC)cc2F)[C@H](C)OC(=O)[C@H](C)NC(=S)c2nccc(OC)c2OC(C)=O)c(F)c1` [Compound 53], for which the pest or weed control at 121.5 g/ha in the test on Zymoseptoria tritici (setting [3]) is greater than 80%; with Zymoseptoria tritici (setting [4]) it was greater than 80%; in the test with Puccinia triticina (setting [5]), greater than 80%; with Puccinia triticina (setting [1]) it was no more than 80%.

With `COc1ccccc1C(c1ccccc1OC)[C@H](C)OC(=O)[C@H](C)NC(=S)c1nccc(OC)c1OC(C)=O` [Compound 54], the pest or weed control at 121.5 g/ha with Zymoseptoria tritici (setting [3]), in the test on Zymoseptoria tritici (setting [4]) and with Puccinia triticina (setting [5]) was greater than 80% each time.

With `COc1ccnc(C(=S)N[C@@H](C)C(=O)O[C@H](C(C)C)[C@H](C)Oc2ccc(C)cc2)c1OC(C)=O` [Compound 56], the pest or weed control at 121.5 g/ha is no more than 80% in the test on Zymoseptoria tritici (setting [3]), no more than 80% in the test with Zymoseptoria tritici (setting [4]), greater than 80% in the test on Puccinia triticina (setting [5]) and greater than 80% in the test with Puccinia triticina (setting [1]).

As to `COc1ccnc(C(=S)N[C@@H](C)C(=O)O[C@@H](C)[C@H](Oc2ccccc2Cl)c2ccccc2)c1OC(C)=O` [Compound 57, (1R,2S)-1-(2-chlorophenoxy)-1-phenylpropan-2-yl (3-acetoxy-4-methoxypyridine-2-carbonothioyl)-L-alaninate], the pest or weed control at 121.5 g/ha in the test with Zymoseptoria tritici (setting [3]) is greater than 80%; with Zymoseptoria tritici (setting [4]) it was greater than 80%; in the test with Puccinia triticina (setting [5]) it was greater than 80%; with Puccinia triticina (setting [1]), no more than 80%.

Take `COc1ccc(O[C@@H](C)[C@H](OC(=O)[C@H](C)NC(=S)c2nccc(OC)c2OC(C)=O)C(C)C)cc1` [Compound 58]: the pest or weed control at 121.5 g/ha with Zymoseptoria tritici (setting [3]), in the test with Zymoseptoria tritici (setting [4]), in the test with Puccinia triticina (setting [5]) and in the test on Puccinia triticina (setting [1]) was greater than 80% each time.

Turning to `COc1ccnc(C(=S)N[C@H](C)C(=O)O[C@@H](C)C(c2ccc(F)cc2)c2ccc(F)cc2)c1OC(C)=O` [Compound 59], the pest or weed control at 121.5 g/ha in the test with Zymoseptoria tritici (setting [3]) is greater than 80%; in the test with Puccinia triticina (setting [5]), no more than 80%; in the test with Puccinia triticina (setting [1]), no more than 80%.

Regarding `C=CC[C@@H](Oc1ccccc1)[C@H](C)OC(=O)[C@H](C)NC(=S)c1nccc(OC)c1OC(C)=O` [Compound 60], the pest or weed control at 121.5 g/ha was no more than 80% with Zymoseptoria tritici (setting [3]), no more than 80% in the test with Zymoseptoria tritici (setting [4]), greater than 80% with Puccinia triticina (setting [5]) and greater than 80% in the test with Puccinia triticina (setting [1]).

As to `COc1ccnc(C(=S)N[C@@H](C)C(=O)O[C@H](C(C)C)[C@H](C)Oc2ccccc2)c1OC(C)=O` [Compound 61], the pest or weed control at 121.5 g/ha in the test on Zymoseptoria tritici (setting [3]) was no more than 80%; in the test with Zymoseptoria tritici (setting [4]), greater than 80%; with Puccinia triticina (setting [5]), greater than 80%; in the test on Puccinia triticina (setting [1]), greater than 80%. The pest or weed control at 25 ppm with Phakopsora pachyrhizi (setting [2]) and in the test with Phakopsora pachyrhizi (setting [6]) was greater than 80% throughout.

On to `CCC[C@@H](Oc1ccc(C)cc1)[C@H](C)OC(=O)[C@H](C)NC(=S)c1nccc(OC)c1OC(C)=O` [Compound 62], for which the pest or weed control at 121.5 g/ha in the test on Zymoseptoria tritici (setting [3]) was no more than 80%; with Puccinia triticina (setting [5]), greater than 80%; in the test on Puccinia triticina (setting [1]) it was greater than 80%. The pest or weed control at 25 ppm with Phakopsora pachyrhizi (setting [2]) and with Phakopsora pachyrhizi (setting [6]) was no more than 80% throughout.

Regarding `CC[C@H](OC(=O)[C@H](C)NC(=S)c1nccc(OC)c1OC(C)=O)[C@@H](C)Oc1ccccc1` [Compound 66], the pest or weed control at 121.5 g/ha with Puccinia triticina (setting [5]) and in the test on Puccinia triticina (setting [1]) was no more than 80% in each case. Moreover, the pest or weed control at 25 ppm with Phakopsora pachyrhizi (setting [2]) and in the test with Phakopsora pachyrhizi (setting [6]) was no more than 80% throughout.

Take `CCC[C@H](OC(=O)[C@H](C)NC(=S)c1nccc(OC)c1OC(C)=O)[C@@H](C)Oc1ccccc1` [Compound 76]: the pest or weed control at 25 ppm with Phakopsora pachyrhizi (setting [2]) was no more than 80%.
